SMILES strings stand for the structures.

Consider one compound from patent US20080306115A1, “Midazole-4-Carboxamide Derivatives For Use As Cb1 Modulators” (priority 2005, published 2008).

The experiment addresses T1, CB1 receptor (Homo sapiens, UniProt P21554).
T1 construct: expressed in transfected cells
Briefly: [35S]-GTPγS binding assay on membranes from cells stably transfected with the CB1 gene, antagonism of CP55940. The settings on record: half maximal inhibition of GTPγS binding, EC80 concentration of agonist CP55940, 30° C., 45 min. The experiment is classed as biochemical. The protocol: 10 μg of membranes prepared from cells stably transfected with the CB1 gene were suspended in […] of 100 mM NaCl, 5 mM MgCl2, 1 mM EDTA, 50 mM HEPES (pH 7.4), 1 mM DTT, 0.1% BSA and 100 μM GDP. To this was added an EC80 concentration of agonist (CP55940), the required concentration of test compound and 0.1 μCi [^35S]-GTPγS. The reaction was allowed to proceed at 30° C. for 45 min. Samples were then transferred on to GF/B filters using a cell harvester and washed with wash buffer (50 mM Tris (pH 7.4), 5 mM MgCl2, 50 mM NaCl). Filters were then covered with scintilant and counted for the amount of [^35S]-GTPγS retained by the filter.
Activity is measured in the absence of all ligands (minimum activity) or in the presence of an EC80 concentration of CP55940 (maximum activity). These activities are set as 0% and 100% activity respectively. At various concentrations of novel ligand, activity is calculated as a percentage of the maximum activity and plotted. The data are fitted using the equation y=A+((B−A)/1+((C/x) ÙD)) and the IC50 value determined as the concentration required to give half maximal inhibition of GTPγS binding under the conditions used.
For orientation: Binding of GTPγS marks nucleotide exchange on a G protein.

T1 sequence (P21554 whole entry): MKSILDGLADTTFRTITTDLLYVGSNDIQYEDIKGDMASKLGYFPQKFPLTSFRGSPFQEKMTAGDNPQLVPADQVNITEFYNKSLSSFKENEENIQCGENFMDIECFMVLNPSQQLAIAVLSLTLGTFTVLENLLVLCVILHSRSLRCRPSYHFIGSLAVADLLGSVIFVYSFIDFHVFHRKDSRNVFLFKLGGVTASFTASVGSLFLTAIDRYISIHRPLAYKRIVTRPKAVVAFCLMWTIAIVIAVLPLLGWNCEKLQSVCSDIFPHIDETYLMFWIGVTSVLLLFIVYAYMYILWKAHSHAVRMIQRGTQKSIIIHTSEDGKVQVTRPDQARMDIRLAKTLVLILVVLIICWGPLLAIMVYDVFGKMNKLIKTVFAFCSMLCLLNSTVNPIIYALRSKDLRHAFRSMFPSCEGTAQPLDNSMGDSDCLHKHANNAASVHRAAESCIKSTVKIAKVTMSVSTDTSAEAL

With `Cc1c(C(=O)Nc2ccc(F)nc2)nc(-c2ccc(Cl)cc2Cl)n1-c1ccc(OS(=O)(=O)CCC(F)(F)F)cc1` [Example 3, 4-(2-(2,4-dichlorophenyl)-4-{[(6-fluoropyridin-3-yl)amino]carbonyl}-5-methyl-1H-imidazol-1-yl)phenyl 3,3,3-trifluoropropane-1-sulfonate], the IC50 (usually the midpoint of a concentration-inhibition curve) stood at 1.2 nM.
